Assay results taken from patent US10815230B2, “Casein kinase 1 delta inhibitor” (ELECTROPHORETICS LIMITED, priority 2015, dated 2020).

Legend:
Experiment in all cases: Kinase selectivity, % remaining activity
Type in all cases: biochemical
Conditions in all cases: 10 μM compound, 10 μM ATP, duplicate
c-Src = c-Src (Homo sapiens, UniProt P12931)
Description: (§1) A two-tier strategy to determine the selectivity of compound A was applied: first, the compound was tested at a single concentration (in duplicate) to determine the %-remaining activity of the target kinase. Subsequently, the IC50 of compound A and comparative compounds for casein kinase 1 delta were determined.
(§2) Compounds were tested in single dose duplicate mode at a concentration of 10 μM (in DMSO) and reactions were carried out at 10 μM ATP, Table 3 reports the % of remaining activity (relative to DMSO).

PDK1/PDPK1 = target: T1, PDK1/PDPK1 (Homo sapiens, UniProt O15530)
T1 sequence (O15530 1-556): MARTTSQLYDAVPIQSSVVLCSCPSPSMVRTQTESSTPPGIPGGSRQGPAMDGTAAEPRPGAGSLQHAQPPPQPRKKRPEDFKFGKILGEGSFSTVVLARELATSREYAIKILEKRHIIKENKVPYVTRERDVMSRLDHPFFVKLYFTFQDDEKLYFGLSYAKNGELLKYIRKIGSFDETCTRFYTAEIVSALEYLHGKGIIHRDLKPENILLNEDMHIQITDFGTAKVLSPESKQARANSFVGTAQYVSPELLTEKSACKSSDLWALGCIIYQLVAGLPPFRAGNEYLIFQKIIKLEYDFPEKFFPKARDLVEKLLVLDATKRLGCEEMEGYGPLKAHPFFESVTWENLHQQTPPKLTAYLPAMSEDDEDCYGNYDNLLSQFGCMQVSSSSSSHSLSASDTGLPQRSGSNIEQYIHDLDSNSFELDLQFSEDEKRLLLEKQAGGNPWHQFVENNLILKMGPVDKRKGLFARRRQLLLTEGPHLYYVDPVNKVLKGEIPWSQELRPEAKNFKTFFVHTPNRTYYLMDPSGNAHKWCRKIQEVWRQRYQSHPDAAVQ
Description: as §1, §2

CK1g1 = CK1g1 (Homo sapiens, UniProt Q9HCP0)
Description: as §1, §2

CK1g3 = CK1g3 (Homo sapiens, UniProt Q9Y6M4)
Description: as §1, §2

KDR/VEGFR2 = KDR/VEGFR2 (Homo sapiens, UniProt P35968)
Description: as §1, §2

P38a/MAPK14 = P38a/MAPK14 (Homo sapiens, UniProt Q16539)
Description: as §1, §2

EGFR = EGFR (Homo sapiens, UniProt P00533)
Description: as §1, §2

CDK5/p25 = CDK5/p25 (Homo sapiens, UniProt Q00535)
Description: as §1, §2

MSK1/RPS6KA5 = MSK1/RPS6KA5 (Homo sapiens, UniProt O75582)
Description: as §1, §2

CLK2 = CLK2 (Homo sapiens, UniProt P49760)
Description: as §1, §2

PKA = PKA (Homo sapiens, UniProt P17612)
Description: as §1, §2

YES/YES1 = YES/YES1 (Homo sapiens, UniProt P07947)
Description: as §1, §2

ALK5/TGFBR1 = target: T2, ALK5/TGFBR1 (Homo sapiens, UniProt P36897)
T2 sequence (P36897 34-503): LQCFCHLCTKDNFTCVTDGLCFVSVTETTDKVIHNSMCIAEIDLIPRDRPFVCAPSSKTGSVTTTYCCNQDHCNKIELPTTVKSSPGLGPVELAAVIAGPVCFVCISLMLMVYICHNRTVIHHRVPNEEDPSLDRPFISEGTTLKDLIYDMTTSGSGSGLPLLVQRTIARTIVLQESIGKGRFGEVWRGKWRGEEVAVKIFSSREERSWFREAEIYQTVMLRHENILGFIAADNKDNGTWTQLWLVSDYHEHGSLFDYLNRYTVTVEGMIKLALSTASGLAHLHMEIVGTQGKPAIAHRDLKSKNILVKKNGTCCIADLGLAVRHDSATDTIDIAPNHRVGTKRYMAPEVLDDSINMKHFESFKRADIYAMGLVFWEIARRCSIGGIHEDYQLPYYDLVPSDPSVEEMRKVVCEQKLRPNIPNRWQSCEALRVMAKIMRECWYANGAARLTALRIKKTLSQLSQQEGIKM
Description: as §1, §2

TNIK = TNIK (Homo sapiens, UniProt Q9UKE5)
Description: as §1, §2

EPHA2 = EPHA2 (Homo sapiens, UniProt P29317)
Description: as §1, §2

LCK = LCK (Homo sapiens, UniProt P06239)
Description: as §1, §2

PIM3 = PIM3 (Homo sapiens, UniProt Q86V86)
Description: as §1, §2

PKCb2 = PKCb2 (Homo sapiens, UniProt P05771)
Description: as §1, §2

JNK2 = JNK2 (Homo sapiens, UniProt P45984)
Description: as §1, §2

CK1e = CK1e (Homo sapiens, UniProt P49674)
Description: as §1, §2

RIPK2 = RIPK2 (Homo sapiens, UniProt O43353)
Description: as §1, §2

GSK3B = GSK3B (Homo sapiens, UniProt P49841)
Description: as §1, §2

CK1g2 = CK1g2 (Homo sapiens, UniProt P78368)
Description: as §1, §2

[1] = read-out: % of remaining activity (relative to DMSO)

Chain of YES/YES1 (P07947 whole entry): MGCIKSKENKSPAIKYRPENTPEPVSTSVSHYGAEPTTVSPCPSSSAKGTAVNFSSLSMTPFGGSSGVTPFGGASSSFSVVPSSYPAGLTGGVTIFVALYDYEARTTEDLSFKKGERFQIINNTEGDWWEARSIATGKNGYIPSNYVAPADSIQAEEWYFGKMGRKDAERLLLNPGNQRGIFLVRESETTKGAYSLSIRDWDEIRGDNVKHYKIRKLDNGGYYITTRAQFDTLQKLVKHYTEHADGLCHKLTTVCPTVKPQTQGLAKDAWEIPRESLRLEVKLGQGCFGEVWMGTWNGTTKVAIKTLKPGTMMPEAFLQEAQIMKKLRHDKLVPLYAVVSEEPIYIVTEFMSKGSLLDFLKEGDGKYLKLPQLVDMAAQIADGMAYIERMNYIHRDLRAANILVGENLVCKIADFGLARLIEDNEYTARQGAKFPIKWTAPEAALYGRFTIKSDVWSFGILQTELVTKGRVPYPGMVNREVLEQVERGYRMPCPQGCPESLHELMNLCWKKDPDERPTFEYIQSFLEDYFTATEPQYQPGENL
Chain of JNK2 (P45984 whole entry): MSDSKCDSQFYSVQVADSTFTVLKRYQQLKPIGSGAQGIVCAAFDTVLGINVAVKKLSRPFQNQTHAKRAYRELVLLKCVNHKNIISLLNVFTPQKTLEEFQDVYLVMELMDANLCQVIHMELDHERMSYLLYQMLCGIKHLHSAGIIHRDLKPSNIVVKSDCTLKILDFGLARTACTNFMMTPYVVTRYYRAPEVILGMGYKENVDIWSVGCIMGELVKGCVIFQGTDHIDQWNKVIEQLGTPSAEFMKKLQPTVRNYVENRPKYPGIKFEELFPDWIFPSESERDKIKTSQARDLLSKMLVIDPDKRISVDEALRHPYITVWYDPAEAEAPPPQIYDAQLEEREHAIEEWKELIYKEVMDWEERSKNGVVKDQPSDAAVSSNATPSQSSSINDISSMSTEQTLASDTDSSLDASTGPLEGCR
Chain of PKCb2 (P05771 1-673 isoform P05771-2): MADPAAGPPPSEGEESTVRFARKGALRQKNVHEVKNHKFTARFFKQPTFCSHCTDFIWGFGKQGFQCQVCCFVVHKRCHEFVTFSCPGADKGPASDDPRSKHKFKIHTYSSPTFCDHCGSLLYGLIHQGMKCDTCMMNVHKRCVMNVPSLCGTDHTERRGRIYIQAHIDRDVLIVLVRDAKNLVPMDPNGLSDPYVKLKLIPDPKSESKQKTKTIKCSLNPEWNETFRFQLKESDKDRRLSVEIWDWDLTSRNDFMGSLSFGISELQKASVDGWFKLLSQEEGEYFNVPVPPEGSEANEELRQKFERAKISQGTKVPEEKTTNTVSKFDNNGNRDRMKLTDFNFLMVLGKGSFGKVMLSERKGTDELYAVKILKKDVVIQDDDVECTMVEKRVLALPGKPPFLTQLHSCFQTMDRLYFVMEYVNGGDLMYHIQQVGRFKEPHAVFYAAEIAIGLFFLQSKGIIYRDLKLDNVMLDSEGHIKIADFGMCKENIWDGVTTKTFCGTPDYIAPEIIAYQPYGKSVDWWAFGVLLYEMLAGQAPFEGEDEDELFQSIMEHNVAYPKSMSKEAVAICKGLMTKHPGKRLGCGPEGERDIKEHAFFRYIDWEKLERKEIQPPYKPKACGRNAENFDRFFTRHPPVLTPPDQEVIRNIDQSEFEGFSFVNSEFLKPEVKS
Chain of c-Src (P12931 whole entry, species assumed): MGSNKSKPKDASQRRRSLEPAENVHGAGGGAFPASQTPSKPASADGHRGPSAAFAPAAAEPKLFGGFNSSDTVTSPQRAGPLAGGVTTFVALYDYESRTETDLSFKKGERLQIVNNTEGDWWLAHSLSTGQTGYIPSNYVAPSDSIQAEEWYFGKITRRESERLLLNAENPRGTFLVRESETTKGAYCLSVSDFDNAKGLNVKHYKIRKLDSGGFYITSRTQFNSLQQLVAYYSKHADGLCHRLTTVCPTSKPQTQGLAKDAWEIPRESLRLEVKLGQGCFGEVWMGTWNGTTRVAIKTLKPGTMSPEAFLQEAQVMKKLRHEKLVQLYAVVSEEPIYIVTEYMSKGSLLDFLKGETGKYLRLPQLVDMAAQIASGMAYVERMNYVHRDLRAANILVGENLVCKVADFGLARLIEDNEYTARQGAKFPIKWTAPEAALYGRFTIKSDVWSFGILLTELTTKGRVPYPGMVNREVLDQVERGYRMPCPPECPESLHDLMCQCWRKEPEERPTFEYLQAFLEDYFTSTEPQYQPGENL
Chain of CK1e (P49674 whole entry): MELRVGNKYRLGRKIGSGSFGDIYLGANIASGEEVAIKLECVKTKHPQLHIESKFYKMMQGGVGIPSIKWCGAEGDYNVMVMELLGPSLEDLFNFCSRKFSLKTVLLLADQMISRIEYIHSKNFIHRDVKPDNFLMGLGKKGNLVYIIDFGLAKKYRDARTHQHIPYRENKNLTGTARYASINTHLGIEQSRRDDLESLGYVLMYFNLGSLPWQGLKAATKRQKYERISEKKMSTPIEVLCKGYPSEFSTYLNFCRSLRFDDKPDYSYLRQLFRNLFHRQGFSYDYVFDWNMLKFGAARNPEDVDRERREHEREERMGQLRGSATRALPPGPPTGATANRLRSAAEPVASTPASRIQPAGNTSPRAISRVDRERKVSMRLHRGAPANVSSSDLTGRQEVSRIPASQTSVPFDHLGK
Chain of RIPK2 (O43353 whole entry): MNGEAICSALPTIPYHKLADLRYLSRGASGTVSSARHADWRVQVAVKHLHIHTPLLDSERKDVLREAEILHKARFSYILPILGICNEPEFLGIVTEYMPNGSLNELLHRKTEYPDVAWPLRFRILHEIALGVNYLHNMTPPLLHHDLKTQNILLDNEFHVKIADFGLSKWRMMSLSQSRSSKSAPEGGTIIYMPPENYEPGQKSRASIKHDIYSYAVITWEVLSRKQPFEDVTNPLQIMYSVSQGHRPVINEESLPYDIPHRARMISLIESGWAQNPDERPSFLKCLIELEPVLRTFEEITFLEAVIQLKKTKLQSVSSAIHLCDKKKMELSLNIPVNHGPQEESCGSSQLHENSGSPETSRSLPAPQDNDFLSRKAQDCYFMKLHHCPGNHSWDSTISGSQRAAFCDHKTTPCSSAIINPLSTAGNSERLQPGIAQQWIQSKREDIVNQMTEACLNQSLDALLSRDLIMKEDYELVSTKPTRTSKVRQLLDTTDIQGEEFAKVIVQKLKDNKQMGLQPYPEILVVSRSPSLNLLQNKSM
Chain of GSK3B (P49841 whole entry): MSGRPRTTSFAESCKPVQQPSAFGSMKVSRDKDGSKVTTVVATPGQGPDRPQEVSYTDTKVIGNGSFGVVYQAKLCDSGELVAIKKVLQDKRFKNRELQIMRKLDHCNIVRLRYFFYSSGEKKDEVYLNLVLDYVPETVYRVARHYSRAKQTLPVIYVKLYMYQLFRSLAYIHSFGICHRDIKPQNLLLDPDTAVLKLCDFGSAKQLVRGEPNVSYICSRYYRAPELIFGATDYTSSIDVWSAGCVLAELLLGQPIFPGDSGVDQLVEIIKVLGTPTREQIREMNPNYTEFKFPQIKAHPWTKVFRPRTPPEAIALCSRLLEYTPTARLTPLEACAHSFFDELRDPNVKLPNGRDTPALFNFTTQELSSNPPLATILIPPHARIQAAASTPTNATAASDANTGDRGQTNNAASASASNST
Chain of CK1g1 (Q9HCP0 whole entry): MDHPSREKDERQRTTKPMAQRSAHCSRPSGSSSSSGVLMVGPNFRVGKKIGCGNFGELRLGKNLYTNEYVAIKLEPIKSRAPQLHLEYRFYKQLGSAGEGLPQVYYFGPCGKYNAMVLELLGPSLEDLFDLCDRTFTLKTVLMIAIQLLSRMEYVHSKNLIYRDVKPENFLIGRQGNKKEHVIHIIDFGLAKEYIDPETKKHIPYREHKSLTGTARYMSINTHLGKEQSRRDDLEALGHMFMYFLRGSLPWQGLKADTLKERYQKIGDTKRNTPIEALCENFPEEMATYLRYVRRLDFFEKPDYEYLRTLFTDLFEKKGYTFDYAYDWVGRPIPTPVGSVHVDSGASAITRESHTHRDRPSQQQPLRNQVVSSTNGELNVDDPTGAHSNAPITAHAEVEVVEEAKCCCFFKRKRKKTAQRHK
Chain of P38a/MAPK14 (Q16539 whole entry): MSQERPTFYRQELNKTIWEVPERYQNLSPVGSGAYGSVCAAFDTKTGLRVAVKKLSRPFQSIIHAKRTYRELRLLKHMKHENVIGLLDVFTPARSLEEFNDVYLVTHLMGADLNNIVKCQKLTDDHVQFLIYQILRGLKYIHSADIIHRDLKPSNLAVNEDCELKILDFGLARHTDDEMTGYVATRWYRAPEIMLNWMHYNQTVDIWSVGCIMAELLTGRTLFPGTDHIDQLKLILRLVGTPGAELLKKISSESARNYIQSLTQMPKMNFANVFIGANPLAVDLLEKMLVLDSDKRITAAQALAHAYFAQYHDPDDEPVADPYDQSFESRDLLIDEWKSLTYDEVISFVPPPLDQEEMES
Chain of CDK5/p25 (Q00535 whole entry, species assumed): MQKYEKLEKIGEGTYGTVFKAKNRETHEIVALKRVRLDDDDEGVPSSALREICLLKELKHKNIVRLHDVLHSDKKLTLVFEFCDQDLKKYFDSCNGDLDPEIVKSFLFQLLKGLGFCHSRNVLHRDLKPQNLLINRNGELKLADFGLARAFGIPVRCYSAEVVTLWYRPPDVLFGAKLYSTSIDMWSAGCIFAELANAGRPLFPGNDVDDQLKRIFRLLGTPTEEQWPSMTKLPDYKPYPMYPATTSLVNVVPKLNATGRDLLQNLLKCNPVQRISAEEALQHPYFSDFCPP

In the case of COc1ccc(C=C2N=C(c3cccs3)OC2=O)cc1 [Comparative Compound 315, 4-((4-methoxyphenyl)methylene)-2-(2-thienyl)-5(4H)-oxalone], the “% of remaining activity (relative to DMSO)” value (c-Src; listed as Cmp 315) is reported as 101.24%, the remaining activity at 10 µM (c-Src; [1]) is reported as 104% and the “% of remaining activity (relative to DMSO)” value (PDK1/PDPK1; listed as Cmp 315) is reported as 103.28%. The remaining activity at 10 µM (PDK1/PDPK1; [1]) was 105%, the “% of remaining activity (relative to DMSO)” value (CK1g1; listed as Cmp 315) was 73.02% and the remaining activity at 10 µM (CK1g1; [1]) was 71.9%. For the same compound, the “% of remaining activity (relative to DMSO)” value (CK1g3; listed as Cmp 315) was 2.99%, the remaining activity at 10 µM (CK1g3; [1]) was 2.9% and the “% of remaining activity (relative to DMSO)” value (KDR/VEGFR2; listed as Cmp 315) was 107.86%. For the same compound, the remaining activity at 10 µM (KDR/VEGFR2; [1]) was 104%, the “% of remaining activity (relative to DMSO)” value (P38a/MAPK14; listed as Cmp 315) was 107.03% and the remaining activity at 10 µM (P38a/MAPK14; [1]) was 105%. The “% of remaining activity (relative to DMSO)” value (EGFR; listed as Cmp 315) was 117.99%, the remaining activity at 10 µM (EGFR; [1]) was 111% and the “% of remaining activity (relative to DMSO)” value (CDK5/p25; listed as Cmp 315) was 94.86%. For the same compound, the remaining activity at 10 µM (CDK5/p25; [1]) was 96.1%, the “% of remaining activity (relative to DMSO)” value (MSK1/RPS6KA5; listed as Cmp 315) was 118.15% and the remaining activity at 10 µM (MSK1/RPS6KA5; [1]) was 117%. For the same compound, the “% of remaining activity (relative to DMSO)” value (CLK2; listed as Cmp 315) was 48.99%, the remaining activity at 10 µM (CLK2; [1]) was 50.6% and the “% of remaining activity (relative to DMSO)” value (PKA; listed as Cmp 315) was 112.40%. For the same compound, the remaining activity at 10 µM (PKA; [1]) was 116%, the “% of remaining activity (relative to DMSO)” value (YES/YES1; listed as Cmp 315) was 99.08% and the remaining activity at 10 µM (YES/YES1; [1]) was 99%. The “% of remaining activity (relative to DMSO)” value (ALK5/TGFBR1; listed as Cmp 315) was 110.31%, the remaining activity at 10 µM (ALK5/TGFBR1; [1]) was 107% and the “% of remaining activity (relative to DMSO)” value (TNIK; listed as Cmp 315) was 101.11%. For the same compound, the remaining activity at 10 µM (TNIK; [1]) was 101%, the “% of remaining activity (relative to DMSO)” value (EPHA2; listed as Cmp 315) was 96.60% and the remaining activity at 10 µM (EPHA2; [1]) was 99%. For the same compound, the “% of remaining activity (relative to DMSO)” value (LCK; listed as Cmp 315) was 97.71%, the remaining activity at 10 µM (LCK; [1]) was 94.9% and the “% of remaining activity (relative to DMSO)” value (PIM3; listed as Cmp 315) was 57.54%. The remaining activity at 10 µM (PIM3; [1]) was 60.6%, the “% of remaining activity (relative to DMSO)” value (PKCb2; listed as Cmp 315) was 110.56% and the remaining activity at 10 µM (PKCb2; [1]) was 112%. For the same compound, the “% of remaining activity (relative to DMSO)” value (JNK2; listed as Cmp 315) was 98.70%, the remaining activity at 10 µM (JNK2; [1]) was 99.4% and the “% of remaining activity (relative to DMSO)” value (CK1e; listed as Cmp 315) was 6.51%. The remaining activity at 10 µM (CK1e; [1]) was 5.45%, the “% of remaining activity (relative to DMSO)” value (RIPK2; listed as Cmp 315) was 90.19% and the remaining activity at 10 µM (RIPK2; [1]) was 93.4%. For the same compound, the “% of remaining activity (relative to DMSO)” value (GSK3B; listed as Cmp 315) was 115.26%, the remaining activity at 10 µM (GSK3B; [1]) was 120% and the “% of remaining activity (relative to DMSO)” value (CK1g2; listed as Cmp 315) was 50.52%. It also gave a remaining activity at 10 µM (CK1g2; [1]) of 47.3%.
